Here are results for 28 molecules from patent publication US9926304B2, “1-(arylmethyl)quinazoline-2,4(1H,3H)-diones as PARP inhibitors and the use thereof” (Impact Therapeutics, Inc., priority 2011, dated 2018).

Experiment [1] deals with Human breast cancer cell line T47D. Briefly: Cell based caspase-3 activity assay: potentiation of MMS induced apoptosis. The following applies: T47D cells, 11.1 μg/ml MMS, 24 hours, intracellular caspase-3 activity, read-out: EC50 (nM), potentiation of the apoptosis inducing activity of MMS. An outline of the steps:
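T47D cells were exposed for 24 h to compound plus a minimally apoptotic MMS dose (medium containing 11.1 μg/ml MMS). Lysates were incubated 3 h at 37 °C with (Ac-DEVD)2-R110 caspase-3 substrate (20 μM in added buffer) and read at ex 496/em 520 nm. EC50 came from a sigmoidal fit of RFU versus log concentration.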

The test system of experiment [2] is SW620 human colorectal cancer cells. Briefly: MTT based cell viability assay: potentiation of the growth inhibiting activity of MMS.
The mark [3] stands for this setting: Homo sapiens, SW-620, 120 h, read-out: IC50 (nM), potentiation of the growth inhibiting activity of MMS, SW620 cells, 1.7 μg/ml MMS, 5 days (120 hours), MTT.

Each structure is given as a SMILES string. Like-named read-outs stand apart in the source and are kept apart here.

Turning to `O=C(c1cccc(Cn2c(=O)[nH]c(=O)c3ccccc32)c1)N1CCN(CC2CCCC2)CC1` [Example 74, 1-(3-(4-(Cyclopentylmethyl)piperazine-1-carbonyl)benzyl)quinazoline-2,4(1H,3H)-dione], the EC50 in experiment [1] (Homo sapiens, T47D, 24 h) worked out at 2110 nM. Moreover, the IC50 in experiment [2] (setting [3]) is over 10000 nM.

With `O=C(c1cccc(Cn2c(=O)[nH]c(=O)c3ccccc32)c1)N1CCN(S(=O)(=O)C2CCCCC2)CC1` [Example 75, 1-(3-(4-(Cyclohexylsulfonyl)piperazine-1-carbonyl)benzyl)quinazoline-2,4(1H,3H)-dione], the EC50 in experiment [1] (Homo sapiens, T47D, 24 h) is 2870 nM. Also, the IC50 in experiment [2] (setting [3]) is 2660 nM.

With `O=C(c1cccc(Cn2c(=O)[nH]c(=O)c3ccc(F)cc32)c1)N1CCN(C(=O)C2CCCC2)CC1` [Example 77, 1-(3-(4-(Cyclopentylcarbonyl)piperazine-1-carbonyl)benzyl)-7-fluoroquinazoline-2,4(1H,3H)-dione], in experiment [1] (Homo sapiens, T47D, 24 h), the half-maximal effective concentration (EC50) is 5210 nM. For the same molecule, the IC50 in experiment [2] (setting [3]) turned out to be 2960 nM.

As to `O=C(c1cccc(Cn2c(=O)[nH]c(=O)c3ccc(F)cc32)c1)N1CCN(c2ncccn2)CC1` [Example 78, 7-Fluoro-1-(3-(4-(pyrimidin-2-yl)piperazine-1-carbonyl)benzyl)quinazoline-2,4(1H,3H)-dione], the EC50 in experiment [1] (Homo sapiens, T47D, 24 h) was determined as 112 nM. Besides, in experiment [2] (setting [3]), the IC50 amounted to 269 nM.

On to `Cc1ccc2c(=O)[nH]c(=O)n(Cc3cccc(C(=O)N4CCN(C(=O)C5CCCC5)CC4)c3)c2c1` [Example 79, 1-(3-(4-(Cyclopentylcarbonyl)piperazine-1-carbonyl)benzyl)-7-methylquinazoline-2,4(1H,31H)-dione], for which, in experiment [1], the EC50 was determined as 3220 nM. The IC50 in experiment [2] (read-out: IC50 (nM), potentiation of the growth inhibiting activity of MMS, SW620 cells, 1.7 μg/ml MMS, 5 days (120 hours), MTT) was found to be 5540 nM.

Consider `Cc1ccc2c(=O)[nH]c(=O)n(Cc3cccc(C(=O)N4CCN(c5ncccn5)CC4)c3)c2c1` [Example 80, 7-Methyl-1-(3-(4-(pyrimidin-2-yl)piperazine-1-carbonyl)benzyl)quinazoline-2,4(1H,3H)-dione], for which the EC50 in experiment [1] (Homo sapiens, T47D, 24 h) turned out to be 1190 nM. For the same molecule, the IC50 in experiment [2] (setting [3]) was over 10000 nM.

Consider `Cc1ccc2c(c1)c(=O)[nH]c(=O)n2Cc1cccc(C(=O)N2CCN(C(=O)C3CCCC3)CC2)c1` [Example 82, 1-(3-(4-(Cyclopentylcarbonyl)piperazine-1-carbonyl)benzyl)-6-methylquinazoline-2,4(1H,3H)-dione], for which the 50% effective concentration (EC50) in experiment [1] (Homo sapiens, T47D, 24 h) amounted to 154 nM. Besides, the IC50 in experiment [2] (setting [3]) is 459 nM.

Take `Cc1ccc2c(c1)c(=O)[nH]c(=O)n2Cc1ccc(F)c(C(=O)N2CCN(C(=O)C3CCCCC3)CC2)c1` [Example 84, 1-(3-(4-(Cyclohexylcarbonyl)piperazine-1-carbonyl)-4-fluorobenzyl)-6-methylquinazoline-2,4(1H,3H)-dione]: the EC50 in experiment [1] (Homo sapiens, T47D, 24 h) turned out to be 18 nM. Moreover, the IC50 in experiment [2] (setting [3]) was found to be 52 nM.

`O=C(c1cccc(Cn2c(=O)[nH]c(=O)c3cc(Br)ccc32)c1)N1CCN(C(=O)C2CCCCC2)CC1` [Example 86, 6-Bromo-1-(3-(4-(cyclohexylcarbonyl)piperazine-1-carbonyl)benzyl)quinazoline-2,4(1H,3H)-dione]: in experiment [1] (Homo sapiens, T47D, 24 h), the EC50 worked out at 27 nM. Further, the IC50 in experiment [2] (setting [3]) is 86 nM.

For `O=C(c1cccc(Cn2c(=O)[nH]c(=O)c3cc(Br)ccc32)c1)N1CCN(C(=O)C2CCCC2)CC1` [Example 87, 6-Bromo-1-(3-(4-(cyclopentylcarbonyl)piperazine-1-carbonyl)benzyl)quinazoline-2,4(1H,3H)-dione], in experiment [1] (Homo sapiens, T47D, 24 h), the half-maximal effective concentration (EC50) was determined as 27 nM. In addition, the IC50 in experiment [2] (setting [3]) is 35 nM.

Consider `O=C(c1cccc(Cn2c(=O)[nH]c(=O)c3cc(Br)ccc32)c1)N1CCN(c2ncccn2)CC1` [Example 88, 6-Bromo-1-(3-(4-(pyrimidin-2-yl)piperazine-1-carbonyl)benzyl)quinazoline-2,4(1H,3H)-dione], for which the 50% effective concentration (EC50) in experiment [1] (Homo sapiens, T47D, 24 h) worked out at 67 nM. The IC50 in experiment [2] (setting [3]) stood at 137 nM.

Turning to `O=C(c1cccc(Cn2c(=O)[nH]c(=O)c3cc([N+](=O)[O-])ccc32)c1)N1CCN(C(=O)C2CCCC2)CC1` [Example 90, 1-(3-(4-(Cyclopentylcarbonyl)piperazine-1-carbonyl)benzyl)-6-nitroquinazoline-2,4(1H,3H)-dione], in experiment [1] (Homo sapiens, T47D, 24 h), the concentration giving a half-maximal response (EC50) stood at 4170 nM. The IC50 in experiment [2] (setting [3]) was over 10000 nM.

Take `O=C(c1cccc(Cn2c(=O)[nH]c(=O)c3cc([N+](=O)[O-])ccc32)c1)N1CCN(c2ncccn2)CC1` [Example 91, 6-Nitro-1-(3-(4-(pyrimidin-2-yl)piperazine-1-carbonyl)benzyl)quinazoline-2,4 (1H,3H)-dione]: the EC50 in experiment [1] (Homo sapiens, T47D, 24 h) turned out to be 1990 nM. Also, in experiment [2] (setting [3]), the IC50 was over 10000 nM.

For `O=C(c1cccc(Cn2c(=O)[nH]c(=O)c3cc([N+](=O)[O-])ccc32)c1)N1CCN(C(=O)C2CCCCC2)CC1` [Example 92, 1-(3-(4-(Cyclohexylcarbonyl)piperazine-1-carbonyl)benzyl)-6-nitroquinazoline-2,4(1H,3H)-dione], the 50% effective concentration (EC50) in experiment [1] (Homo sapiens, T47D, 24 h) came out at 2930 nM. The IC50 in experiment [2] (setting [3]) was over 10000 nM.

As to `O=C(c1ccccc1)N1CCN(C(=O)c2ccc(Cn3c(=O)[nH]c(=O)c4ccccc43)cc2)CC1` [Example 93, 1-(4-(4-Benzoylpiperazine-1-carbonyl)benzyl)quinazoline-2,4(1H,3H)-dione], in experiment [1] (Homo sapiens, T47D, 24 h), the concentration giving a half-maximal response (EC50) was over 10000 nM. Besides, the IC50 in experiment [2] (setting [3]) was over 10000 nM.

On to `O=C(c1ccc(Cn2c(=O)[nH]c(=O)c3ccccc32)cc1)N1CCN(c2ccccn2)CC1` [Example 94, 1-(4-(4-(Pyridin-2-yl)piperazine-1-carbonyl)benzyl)quinazoline-2,4(1H,3H)-dione], for which the half-maximal effective concentration (EC50) in experiment [1] (Homo sapiens, T47D, 24 h) is over 10000 nM. Moreover, the IC50 in experiment [2] (setting [3]) is over 10000 nM.

Take `COc1ccc(C(=O)N2CCN(C(=O)c3ccc(Cn4c(=O)[nH]c(=O)c5ccccc54)cc3)CC2)cc1` [Example 95, 1-(4-(4-(4-Methoxybenzoyl)piperazine-1-carbonyl)benzyl)quinazoline-2,4(1H,3H)-dione]: in experiment [1] (Homo sapiens, T47D, 24 h), the 50% effective concentration (EC50) is over 10000 nM. The IC50 in experiment [2] (setting [3]) was over 10000 nM.

Turning to `O=C(c1ccc(F)cc1)N1CCN(C(=O)c2ccc(Cn3c(=O)[nH]c(=O)c4ccccc43)cc2)CC1` [Example 96, 1-(4-(4-(4-Fluorobenzoyl)piperazine-1-carbonyl)benzyl)quinazoline-2,4(1H,3H)-dione], in experiment [1] (Homo sapiens, T47D, 24 h), the half-maximal effective concentration (EC50) is over 10000 nM. Also, the IC50 in experiment [2] (setting [3]) is over 10000 nM.

Turning to `O=C(c1ccc(Cn2c(=O)[nH]c(=O)c3ccccc32)cc1)N1CCN(c2ncccn2)CC1` [Example 97, 1-(4-(4-(Pyrimidin-2-yl)piperazine-1-carbonyl)benzyl)quinazoline-2,4(1H,3H)-dione], in experiment [1] (Homo sapiens, T47D, 24 h), the 50% effective concentration (EC50) is over 10000 nM. Further, in experiment [2] (setting [3]), the IC50 was over 10000 nM.

Take `O=C(c1ccc(Br)cc1)N1CCN(C(=O)c2ccc(Cn3c(=O)[nH]c(=O)c4ccccc43)cc2)CC1` [Example 98, 1-(4-(4-(4-Bromobenzoyl)piperazine-1-carbonyl)benzyl)quinazoline-2,4(1H,3H)-dione]: the EC50 in experiment [1] (Homo sapiens, T47D, 24 h) was over 10000 nM. Besides, the IC50 in experiment [2] (setting [3]) was over 10000 nM.

In the case of `O=C(c1ccc(Cn2c(=O)[nH]c(=O)c3ccccc32)cc1)N1CCN(C(=O)C2CCCC2)CC1` [Example 99, 1-(4-(4-(Cyclopentylcarbonyl)piperazine-1-carbonyl)benzyl)quinazoline-2,4(1H,3H)-dione], the EC50 in experiment [1] (Homo sapiens, T47D, 24 h) was over 10000 nM. Also, the IC50 in experiment [2] (setting [3]) was over 10000 nM.

As for `O=C(c1cccc(Cn2c(=O)[nH]c(=O)c3c(Cl)cccc32)c1)N1CCN(C(=O)C2CCCCC2)CC1` [Example 102, 5-Chloro-1-(3-(4-(cyclohexylcarbonyl)piperazine-1-carbonyl)benzyl)quinazoline-2,4(1H,3H)-dione], the EC50 in experiment [1] (Homo sapiens, T47D, 24 h) was 26 nM. Besides, the IC50 in experiment [2] (setting [3]) was found to be 87 nM.

On to `O=C(c1cc(Cn2c(=O)[nH]c(=O)c3c(Cl)cccc32)ccc1F)N1CCN(c2ccccn2)CC1` [Example 106, 5-Chloro-1-(4-fluoro-3-(4-(pyridin-2-yl)piperazine-1-carbonyl)benzyl)quinazoline-2,4(1H,3H)-dione], for which, in experiment [1] (Homo sapiens, T47D, 24 h), the half-maximal effective concentration (EC50) was determined as 217 nM. Further, in experiment [2] (setting [3]), the IC50 came out at 105 nM.

For the molecule `O=C(c1ccc(F)c(Cn2c(=O)[nH]c(=O)c3c(Cl)cccc32)c1)N1CCN(C(=O)C2CCCCC2)CC1` [Example 108, 5-Chloro-1-(3-(4-(cyclohexylcarbonyl)piperazine-1-carbonyl)-6-fluorobenzyl)quinazoline-2,4(1H,3H)-dione], in experiment [1] (Homo sapiens, T47D, 24 h), the EC50 was determined as 68 nM. Further, the IC50 in experiment [2] (setting [3]) was found to be 78 nM.

In the case of `O=C(c1ccc(F)c(Cn2c(=O)[nH]c(=O)c3c(Cl)cccc32)c1)N1CCN(C(=O)C2CCCC2)CC1` [Example 109, 5-Chloro-1-(3-(4-(cyclopentylcarbonyl)piperazine-1-carbonyl)-6-fluorobenzyl)quinazoline-2,4(1H,3H)-dione], the EC50 in experiment [1] (Homo sapiens, T47D, 24 h) was found to be 23 nM. Further, the IC50 in experiment [2] (setting [3]) was determined as 48 nM.

With `O=C(c1ccc(F)c(Cn2c(=O)[nH]c(=O)c3c(Cl)cccc32)c1)N1CCN(c2ncccn2)CC1` [Example 110, 5-Chloro-1-(6-fluoro-3-(4-(pyrimidin-2-yl)piperazine-1-carbonyl)benzyl)quinazoline-2,4(1H,3H)-dione], the 50% effective concentration (EC50) in experiment [1] (Homo sapiens, T47D, 24 h) was found to be 32 nM. In experiment [2] (setting [3]), the IC50 was 72 nM.

With `O=C(c1cccc(Cn2c(=O)[nH]c(=O)c3cc(Cl)ccc32)c1)N1CCN(c2ccccn2)CC1` [Example 114, 6-Chloro-1-(3-(4-(pyridin-2-yl)piperazine-1-carbonyl)benzyl)quinazoline-2,4(1H,3H)-dione], in experiment [1] (Homo sapiens, T47D, 24 h), the concentration for a half-maximal effect (EC50) worked out at 19 nM. The IC50 in experiment [2] (setting [3]) was found to be 51 nM.

For `O=C(c1cccc(Cn2c(=O)[nH]c(=O)c3cc(Cl)ccc32)c1)N1CCN(C(=O)c2cccs2)CC1` [Example 115, 6-Chloro-1-(3-(4-(thiophene-2-carbonyl)piperazine-1-carbonyl)benzyl)quinazoline-2,4(1H,3H)-dione], in experiment [1] (Homo sapiens, T47D, 24 h), the half-maximal effective concentration (EC50) was 23 nM. Also, the IC50 in experiment [2] (setting [3]) is 19 nM.

In general, EC50 refers to the concentration giving half of the maximal effect.
